# Results taken from patent US12377104B1, “Methods for treating a fatty liver disease” (Madrigal Pharmaceuticals, Inc., priority 2024, dated 2025).
# System: adults with biopsy-confirmed NASH
# Test: MAESTRO-NASH: liver enzymes, imaging and biomarkers (MRI-PDFF, CAP, VCTE, MRE, liver and spleen volume, ELF)
# Assay type: in vivo, human
# [1] = 100 mg, wk 48, baseline ALT ≥30 U per liter
# [2] = 100 mg, F1B, responder analysis
# [3] = 100 mg, week 52, baseline ELF score ≥9.8
# [4] = 100 mg, week 52, baseline PIIINP ≥9 ng/mL
# [5] = 100 mg, week 52, baseline TIMP-I ≥240 ng/ml
# [6] = 100 mg, week 52, baseline hyaluronic acid ≥50 ng/ml
smiles,measurement,setting,value
"CC(C)c1cc(Oc2c(Cl)cc(-n3nc(C#N)c(=O)[nH]c3=O)cc2Cl)n[nH]c1=O [Resmetirom, 2-(3,5-dichloro-4-((5-isopropyl-6-oxo-1,6-dihydropyridazin-3-yl)oxy)phenyl)-3,5-dioxo-2,3,4,5-tetrahydro-1,2,4-triazine-6-carbonitrile]","Hyaluronic acid, LS mean CFB difference from PBO","80 mg, week 52, baseline hyaluronic acid ≥50 ng/ml",0.58 µg/L
same,"Alanine aminotransferase level, difference from placebo","100 mg, wk 48",−26.3 percentage points
same,"Aspartate aminotransferase level, difference from placebo","100 mg, wk 48",−25.4 percentage points
same,"γ-Glutamyltransferase level, difference from placebo","100 mg, wk 48",−35.2 percentage points
same,"Alanine aminotransferase level, least-squares mean percent change from baseline",[1],−33.2 ± 3.9%
same,"Aspartate aminotransferase level, least-squares mean percent change from baseline",[1],−28.3 ± 3.9%
same,"γ-Glutamyltransferase level, least-squares mean percent change from baseline",[1],−31.9 ± 6.3%
same,"MRI-PDFF, difference from placebo","100 mg, wk 52",−37.9 percentage points
same,"MRI-PDFF, least-squares mean percent change from baseline","100 mg, wk 52",−46.6 ± 2.8%
same,"MRE ≥19% increase from BL, % of patients",[2],(20.0) %
same,"MRE ≥19% increase from BL, no. of patients",[2],1
same,"MRE ≥19% reduction from BL, no. of patients",[2],0
same,"VCTE/LSM improving >25%, % of patients",[2],(70.0) %
same,"VCTE/LSM improving >25%, no. of patients",[2],7
same,"VCTE/LSM improving ≥30%, % of patients",[2],(60.0) %
same,"VCTE/LSM improving ≥30%, no. of patients",[2],6
same,"VCTE/LSM worsening ≥25%, no. of patients",[2],0
same,"VCTE/LSM worsening ≥30%, no. of patients",[2],0
same,"FibroScan VCTE/LSM, LS mean CFB","100 mg, F1B, week 52",−3.7 kPa
same,"FibroScan VCTE/LSM, LS mean CFB difference from PBO","100 mg, F1B, week 52",−3.1 kPa
same,"MRE, LS mean % CFB","100 mg, F1B, week 52",2.4%
same,"MRE, LS mean % CFB difference from PBO","100 mg, F1B, week 52",−5.1%
same,"MRE ≥19% increase from BL, no. of patients","100 mg, F2, responder analysis",0
same,"MRE ≥19% reduction from BL, % of patients","100 mg, F2, responder analysis",(22.7) %
same,"MRE ≥19% reduction from BL, no. of patients","100 mg, F2, responder analysis",5
same,"VCTE/LSM improving ≥25%, % of patients","100 mg, F2, responder analysis",(50.0) %
same,"VCTE/LSM improving ≥25%, no. of patients","100 mg, F2, responder analysis",38
same,"VCTE/LSM improving ≥30%, % of patients","100 mg, F2, responder analysis",(40.8) %
same,"VCTE/LSM improving ≥30%, no. of patients","100 mg, F2, responder analysis",31
same,"VCTE/LSM worsening ≥25%, % of patients","100 mg, F2, responder analysis",(10.5) %
same,"VCTE/LSM worsening ≥25%, no. of patients","100 mg, F2, responder analysis",8
same,"VCTE/LSM worsening ≥30%, % of patients","100 mg, F2, responder analysis",(6.6) %
same,"VCTE/LSM worsening ≥30%, no. of patients","100 mg, F2, responder analysis",5
same,"FibroScan VCTE/LSM, LS mean CFB","100 mg, F2, week 52",−2.4 kPa
same,"FibroScan VCTE/LSM, LS mean CFB difference from PBO","100 mg, F2, week 52",−1.2 kPa
same,"MRE, LS mean % CFB","100 mg, F2, week 52",1.1%
same,"MRE, LS mean % CFB difference from PBO","100 mg, F2, week 52",0.99%
same,"MRE ≥19% increase from BL, % of patients","100 mg, F3, responder analysis",(8.1) %
same,"MRE ≥19% increase from BL, no. of patients","100 mg, F3, responder analysis",7
same,"MRE ≥19% reduction from BL, % of patients","100 mg, F3, responder analysis",(31.4) %
same,"MRE ≥19% reduction from BL, no. of patients","100 mg, F3, responder analysis",27
same,"VCTE/LSM improving ≥25%, % of patients","100 mg, F3, responder analysis",(47.9) %
same,"VCTE/LSM improving ≥25%, no. of patients","100 mg, F3, responder analysis",80
same,"VCTE/LSM improving ≥30%, % of patients","100 mg, F3, responder analysis",(38.9) %
same,"VCTE/LSM improving ≥30%, no. of patients","100 mg, F3, responder analysis",65
same,"VCTE/LSM worsening ≥25%, % of patients","100 mg, F3, responder analysis",(10.8) %
same,"VCTE/LSM worsening ≥25%, no. of patients","100 mg, F3, responder analysis",18
same,"VCTE/LSM worsening ≥30%, % of patients","100 mg, F3, responder analysis",(10.2) %
same,"VCTE/LSM worsening ≥30%, no. of patients","100 mg, F3, responder analysis",17
same,"FibroScan VCTE/LSM, LS mean CFB","100 mg, F3, week 52",−3.2 kPa
same,"FibroScan VCTE/LSM, LS mean CFB difference from PBO","100 mg, F3, week 52",−2.1 kPa
same,"MRE, LS mean % CFB","100 mg, F3, week 52",5.2%
same,"MRE, LS mean % CFB difference from PBO","100 mg, F3, week 52",−4.8%
same,"Liver volume, LS mean % CFB","100 mg, week 16",-21.4%
same,"Liver volume, LS mean % CFB difference from PBO","100 mg, week 16",−21.1%
same,"MRI-PDFF % fat fraction, LS mean % CFB","100 mg, week 16",42.1%
same,"MRI-PDFF % fat fraction, LS mean % CFB difference from PBO","100 mg, week 16",−35.7%
same,"Spleen volume, LS mean % CFB","100 mg, week 16",3.6%
same,"Spleen volume, LS mean % CFB difference from PBO","100 mg, week 16",−5.0%
same,"ALT, LS mean % CFB","100 mg, week 48",−33.2%
same,"ALT, LS mean % CFB difference from PBO","100 mg, week 48",−26.3%
same,"ALT, LS mean CFB","100 mg, week 48",24.8 U/L
same,"AST, LS mean % CFB","100 mg, week 48",28.3%
same,"AST, LS mean % CFB difference from PBO","100 mg, week 48",−25.4%
same,"AST, LS mean CFB","100 mg, week 48",15.8 U/L
same,"GGT, LS mean % CFB","100 mg, week 48",-31.9%
same,"GGT, LS mean % CFB difference from PBO","100 mg, week 48",−35.2%
same,"GGT, LS mean CFB","100 mg, week 48",-32.7 U/L
same,"Adiponectin, LS mean CFB","100 mg, week 52",1.1 µg/mL
same,"Adiponectin, LS mean CFB difference from PBO","100 mg, week 52",1.3 µg/mL
same,"CK-18, LS mean CFB","100 mg, week 52",-310 U/L
same,"CK-18, LS mean CFB difference from PBO","100 mg, week 52",−165.7 U/L
same,"FibroScan CAP, LS mean CFB","100 mg, week 52",−41.3 dB/m
same,"FibroScan CAP, LS mean CFB difference from PBO","100 mg, week 52",−26.9 dB/m
same,"Liver volume, LS mean % CFB","100 mg, week 52",-25.8%
same,"Liver volume, LS mean % CFB difference from PBO","100 mg, week 52",24.8%
same,"MRI-PDFF % fat fraction, LS mean % CFB","100 mg, week 52",46.6%
same,"MRI-PDFF % fat fraction, LS mean % CFB difference from PBO","100 mg, week 52",−37.9%
same,"Spleen volume, LS mean % CFB","100 mg, week 52",−6.1%
same,"Spleen volume, LS mean % CFB difference from PBO","100 mg, week 52",−9.3%
same,"Enhanced liver fibrosis score, LS mean CFB",[3],−0.35
same,"Enhanced liver fibrosis score, LS mean CFB difference from PBO",[3],−0.24
same,"PIIINP, LS mean % CFB",[4],-10.3%
same,"PIIINP, LS mean % CFB difference from PBO",[4],−9.3%
same,"PIIINP, LS mean CFB",[4],-2.1 ng/mL
same,"PIIINP, LS mean CFB difference from PBO",[4],-1.4 ng/mL
same,"TIMP-I, LS mean % CFB",[5],−10.1%
same,"TIMP-I, LS mean % CFB difference from PBO",[5],−6.5%
same,"TIMP-I, LS mean CFB",[5],-35.7 ng/mL
same,"TIMP-I, LS mean CFB difference from PBO",[5],-22.3 ng/mL
same,"Hyaluronic acid, LS mean % CFB",[6],11.8%
same,"Hyaluronic acid, LS mean % CFB difference from PBO",[6],−13.0%
same,"Hyaluronic acid, LS mean CFB",[6],-2.9 µg/L
same,"Hyaluronic acid, LS mean CFB difference from PBO",[6],-3.5 µg/L
